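Where inhibition never reached the appropriate level, the endpoint shown equals the highest concentration tested. Otherwise, values were interpolated linearly from a five-concentration, 48-hour dose response in 96-well plates. GI50 marks 50% less growth.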 The source made the active and inactive calls. No stated cut-off is given here; in the data, active = GI50 up to about 1.1 µM and inactive = higher.
Tests used:
Test in all cases: DTP human tumour cell line panel, 48 h
[1] = system: OVCAR-4
[2] = system: 786-0
[3] = system: LOX IMVI
[4] = system: MDA-MB-435
[5] = system: KM12
[6] = system: SW-620
[7] = system: NCI-H226
[8] = system: Hs-578T
[9] = system: SK-MEL-5
[10] = system: HOP-92
[11] = system: UO-31
[12] = system: EKVX
[13] = system: A549
[14] = system: A498
[15] = system: HOP-62
[16] = system: CCRF-CEM
[17] = system: TK-10
[18] = system: DU-145
[19] = system: SF-268
[20] = system: COLO 205

Structure (SMILES) | GI50 [1] | GI50 [2] | GI50 [3] | GI50 [4] | GI50 [5] | GI50 [6] | GI50 [7] | GI50 [8] | GI50 [9] | GI50 [10] | GI50 [11] | GI50 [12] | GI50 [13] | GI50 [14] | GI50 [15] | GI50 [16] | GI50 [17] | GI50 [18] | GI50 [19] | GI50 [20]
O=C1N(CN2CCOCC2)CN(CN2CCOCC2)C(=O)N1Cc1ccc(CN2C(=O)N(CN3CCOCC3)CN(CN3CCOCC3)C2=O)cc1 | 35.7 µM (inactive) | 28.8 µM (inactive) | 23.9 µM (inactive) | 26.4 µM (inactive) | 48.1 µM (inactive) | 43 µM (inactive) | > 100 µM (inactive) | 22 µM (inactive) | > 100 µM (inactive) | 52 µM (inactive) | 44.4 µM (inactive) | > 100 µM (inactive) | 40.2 µM (inactive) | > 100 µM (inactive) | > 100 µM (inactive) | 62.1 µM (inactive) | > 100 µM (inactive) | 45.8 µM (inactive) | 28.4 µM (inactive) | 43 µM (inactive)
O=C(CCc1ccccc1)ON1C(=S)NC(c2ccccc2)(c2ccccc2)C1=S | 33.7 µM (inactive) | 19.7 µM (inactive) | 21.1 µM (inactive) | 36.9 µM (inactive) | 27.4 µM (inactive) | 42.4 µM (inactive) | 22 µM (inactive) | 31.1 µM (inactive) | 19.5 µM (inactive) | 65 µM (inactive) | 43.4 µM (inactive) | 25.4 µM (inactive) | 37.5 µM (inactive) | > 100 µM (inactive) | 30.1 µM (inactive) | 21.9 µM (inactive) | 54.5 µM (inactive) | 68.1 µM (inactive) | 28.2 µM (inactive) | 40.2 µM (inactive)
CCOC(=O)C12CCC(c3c(C)cccc3C)(O1)C(C(=O)OC)=C2C(=O)OC (stereo not given) | > 9.02 µM (inactive) | 3.08 µM (inactive) | 2.39 µM (inactive) | 0.499 µM (active) | 4.28 µM (inactive) | 2.07 µM (inactive) | 5.52 µM (inactive) | 3.52 µM (inactive) | 0.668 µM (active) | 4.24 µM (inactive) | > 10 µM (inactive) | > 7.18 µM (inactive) | 3.62 µM (inactive) | 2.14 µM (inactive) | 4.11 µM (inactive) | 3.06 µM (inactive) | > 10 µM (inactive) | 4.24 µM (inactive) | > 6.89 µM (inactive) | 1.87 µM (inactive)
COc1cc(NS(C)(=O)=O)ccc1NCc1c[nH]c2ccc3ncccc3c12 | 20.7 µM (inactive) | 15.6 µM (inactive) | 25.2 µM (inactive) | 19.3 µM (inactive) | 17.1 µM (inactive) | 26.1 µM (inactive) | 12.3 µM (inactive) | 19.7 µM (inactive) | 12.4 µM (inactive) | 33 µM (inactive) | 26.4 µM (inactive) | 20.2 µM (inactive) | 27.8 µM (inactive) | 23.1 µM (inactive) | 22.2 µM (inactive) | 1.83 µM (inactive) | 28 µM (inactive) | 23.9 µM (inactive) | 22.4 µM (inactive) | 15.6 µM (inactive)
CCCCCCCCCCCCCC(=O)N(CCCCCCCCC)CC(O)C(O)C(OC1OC(CO)C(O)C(O)C1O)C(O)CO (stereo not given) | 24 µM (inactive) | 17.1 µM (inactive) | 19.5 µM (inactive) | 19.8 µM (inactive) | 17.7 µM (inactive) | 19.9 µM (inactive) | 18.7 µM (inactive) | 22.5 µM (inactive) | 19.5 µM (inactive) | 17.3 µM (inactive) | 19.1 µM (inactive) | 18 µM (inactive) | 22.3 µM (inactive) | 21.2 µM (inactive) | 24.6 µM (inactive) | 26.2 µM (inactive) | 18.6 µM (inactive) | 16.5 µM (inactive) | 19.1 µM (inactive) | 20.5 µM (inactive)
COc1nc(OC)nc(-c2cccc(F)c2)n1 | 15.7 µM (inactive) | 19 µM (inactive) | 17 µM (inactive) | 15 µM (inactive) | 15.7 µM (inactive) | 17.7 µM (inactive) | 13.4 µM (inactive) | 32.1 µM (inactive) | 15.6 µM (inactive) | 6.41 µM (inactive) | 16.6 µM (inactive) | 4.6 µM (inactive) | 17.1 µM (inactive) | 19.1 µM (inactive) | 20.4 µM (inactive) | 9.2 µM (inactive) | 18.3 µM (inactive) | 13.2 µM (inactive) | 14 µM (inactive) | 15.4 µM (inactive)
C[C@@](O)(/C=C/[C@H]1CC=CC(=O)O1)[C@@H](C[C@@H](O)\C=C/C=C\C=C\CO)OP(=O)(O)O [FOSTRIECIN SODIUM] | 5.27 µM (inactive) | 5.36 µM (inactive) | 2.16 µM (inactive) | 1.28 µM (inactive) | 6.08 µM (inactive) | 9.29 µM (inactive) | 7.4 µM (inactive) | 5.51 µM (inactive) | 4.67 µM (inactive) | 2.27 µM (inactive) | 11 µM (inactive) | 16.5 µM (inactive) | 9.66 µM (inactive) | 23.9 µM (inactive) | 4.9 µM (inactive) | 2.12 µM (inactive) | 12.8 µM (inactive) | 3.21 µM (inactive) | 16.4 µM (inactive) | 3.08 µM (inactive)
CC1OC(OC2C(O)COC(OC3C(C)OC(OC4C(OC(=O)[C@]56CCC(C)(C)C[C@@H]5C5=CCC7[C@@]8(C)C[C@H](O)[C@H](OC9OC(CO)C(O)C(O)C9O)[C@@](C)(CO)[C@@H]8CC[C@@]7(C)[C@]5(C)CC6)OCC(O)C4O)C(O)C3O)C2O)C(O)C(O)C1O (stereo not given in full) | 20.8 µM (inactive) | 18.1 µM (inactive) | 21.3 µM (inactive) | 23.4 µM (inactive) | 35.5 µM (inactive) | 20.1 µM (inactive) | 25.1 µM (inactive) | 32 µM (inactive) | 20.4 µM (inactive) | 23.7 µM (inactive) | 12.9 µM (inactive) | 16.5 µM (inactive) | 20.8 µM (inactive) | 19.5 µM (inactive) | 18.3 µM (inactive) | 20.6 µM (inactive) | 17.1 µM (inactive) | 19.1 µM (inactive) | 27.7 µM (inactive) | 14.9 µM (inactive)
CCC(C)C1(O)OC2CC3(C)OC(=CC3=O)/C(C)=C\C3OC(=O)C1(C)C32 (stereo not given) | 42.5 µM (inactive) | 16.6 µM (inactive) | 14.7 µM (inactive) | 11.9 µM (inactive) | 10.6 µM (inactive) | 3.37 µM (inactive) | 25.9 µM (inactive) | 30.5 µM (inactive) | 10.5 µM (inactive) | 8.75 µM (inactive) | 17.8 µM (inactive) | 12.7 µM (inactive) | 24.8 µM (inactive) | 25.2 µM (inactive) | 22.8 µM (inactive) | 4.83 µM (inactive) | 21 µM (inactive) | 4.68 µM (inactive) | 13.9 µM (inactive) | 8.93 µM (inactive)
NCCNC(=O)CN(CC(=O)O)C1CCCCC1N(CC(=O)O)CC(=O)O (stereo not given) | > 100 µM (inactive) | > 100 µM (inactive) | > 100 µM (inactive) | > 100 µM (inactive) | > 100 µM (inactive) | > 100 µM (inactive) | > 100 µM (inactive) | 56 µM (inactive) | > 100 µM (inactive) | 11.7 µM (inactive) | > 100 µM (inactive) | > 100 µM (inactive) | > 100 µM (inactive) | > 100 µM (inactive) | > 100 µM (inactive) | > 100 µM (inactive) | > 100 µM (inactive) | > 100 µM (inactive) | 24.4 µM (inactive) | > 100 µM (inactive)

Source: ChEMBL document CHEMBL1201862, “PubChem BioAssay data set” (2004)
